Assays:
HIV integrase = HIV integrase (Human immunodeficiency virus type 1 group M subtype B, UniProt P04585); assay: biochemical
Method: Representative compounds of the invention were tested for biological activity by methods including anti-HIV assay, measuring inhibition of HIV-integrase strand transfer catalysis, and cytotoxicity.
HIV Integrase Assay (IC50 Determination)
The HIV Integrase assay is carried out in Reacti-Bind High Binding Capacity Streptavidin coated plates (Pierce # 15502) in 100 μl reactions. The wells of the plate are rinsed once with PBS. Each well is then coated at room temperature for 1 h with 100 μl of 0.14 μM Donor DNA with the following sequence:
After coating, the plate was washed twice with PBS. 3′processing of the Donor DNA is started by adding 80 μl of Integrase/buffer mixture (25 mM HEPES, pH 7.3, 12.5 mM DTT, 93.75 mM NaCl, 12.5 mM MgCl2, 1.25% Glycerol, 0.3125 uM integrase) to each well. 3′processing is allowed to proceed for 30 min at 37° C., after which, 10 μl of test compound and 10 μl of 2.5 uM DIG-labeled Target DNA with the following sequence:
are added to each well to allow strand transfer to proceed for 30 min at 37° C. The plate is then washed three times with 2×SSC for 5 min and rinsed once with PBS. For detection of integrated product, 100 μl of a 1/2000 dilution of HRP-conjugated anti-DIG antibody (Pierce #31468) are added to each well and incubated for 1 hour. The plate was then washed three times for 5 min each, with 0.05% Tween-20 in PBS. For signal development and amplification, 100 μl of SuperSignal ELISA Femto Substrate (Pierce #37075) are added to each well. Chemiluminescence (in relative light units) is read immediately at 425 nm in the SPECTRAmax GEMINI Microplate Spectrophotometer using the end point mode at 5 sec per well.
For IC50 determinations, eight concentrations of test compounds in a 1/2.2 dilution series are used.

HIV-IIIb = assay: Antiviral assay in MT-4 cells infected with HIV-IIIb; type: cell-based; conditions: MT4, 120 h; MT-4 cells, HIV-IIIb, 5 days; read-out: EC50 Range MT-4
Method: See: Wolfe, etal J. Virol.
Antiviral Assays in MT2 and MT4 Cells
For the antiviral assay utilizing MT-2 cells, 50 μl of 2× test concentration of 5-fold serially diluted compound in culture medium with 10% FBS was added to each well of a 96-well plate (9 concentrations) in triplicate. MT-2 cells were infected with HIV-IIIb at a multiplicity of infection (m.o.i) of 0.01 for 3 hours. Fifty microliters of infected cell suspension in culture medium with 10% FBS (˜1.5×10^4 cells) was then added to each well containing 50 μl of diluted compound. The plates were then incubated at 37° C. for 5 days. For the antiviral assay utilizing MT-4 cells, 20 μl of 2× test concentration of 5-fold serially diluted compound in culture medium with 10% FBS was added to each well of a 384-well plate (7 concentrations) in triplicate. MT-4 cells were next mixed with HIV-IIIb at an m.o.i. of 0.1 and 20 μl of virus/cell mixture (˜2000 cells) was immediately added to each well containing 20 μl of diluted compound. The plates were then incubated at 37° C. for 5 days. After 5 days of incubation, 100 μl of CellTiter-Glo™ Reagent (catalog # G7571, Promega Biosciences, Inc., Madison, Wis.) was added to each well containing MT-2 cells and 40 μl to each well containing MT-4 cells. Cell lysis was carried out by incubating at room temperature for 10 min and then chemiluminescence was read.

Row | SMILES | IC50 (HIV integrase) [µM] | EC50 (HIV-IIIb) [µM]
1 | CC1c2c(c(O)c3ncccc3c2N(C)S(C)(=O)=O)C(=O)N1Cc1ccc(F)cc1 (racemic) [Compound 74, N-(7-(4-fluorobenzyl)-9-hydroxy-6-(R and S)-methyl-8-oxo-7,8-dihydro-6H-pyrrolo[3,4-g]quinolin-5-yl)-N-methylmethanesulfonamide] | < 0.06 | < 0.06
2 | CN(c1c2c(c(O)c3ncccc13)C(=O)N(Cc1ccc(F)cc1)C2)S(=O)(=O)c1ccccn1 [Compound 158, N-(7-(4-fluorobenzyl)-9-hydroxy-8-oxo-7,8-dihydro-6H-pyrrolo[3,4-g]quinolin-5-yl)-N-methylpyridine-2-sulfonamide] | 0.06 to 1 | < 0.06
3 | CC(C)C(=O)Nc1c2c(c(O)c3ncccc13)C(=O)N(Cc1ccc(F)cc1)C2 [Compound 67, N-(7-(4-fluorobenzyl)-9-hydroxy-8-oxo-7,8-dihydro-6H-pyrrolo[3,4-g]quinolin-5-yl)isobutyramide] | < 0.06 | < 0.06
4 | Nc1c2c(c(O)c3ncccc13)C(=O)N(Cc1ccc(F)cc1)C2=O [Compound 8, 5-amino-7-(4-fluorobenzyl)-9-hydroxy-6H-pyrrolo[3,4-g]quinoline-6,8(7H)-dione] | 0.06 to 1 | > 1
5 | CCN(c1c2c(c(O)c3ncccc13)C(=O)N(Cc1ccc(F)cc1)C2)S(C)(=O)=O [Compound 78, N-ethyl-N-(7-(4-fluorobenzyl)-9-hydroxy-8-oxo-7,8-dihydro-6H-pyrrolo[3,4]quinolin-5-yl)methanesulfonamide] | < 0.06 | < 0.06
6 | CN(c1c2c(c(O)c3ncccc13)C(=O)N(Cc1ccc(F)cc1Cl)C2)S(C)(=O)=O [Compound 147, N-(7-(2-chloro-4-fluorobenzyl)-9-hydroxy-8-oxo-7,8-dihydro-6H-pyrrolo[3,4-g]quinolin-5-yl)-N-methylmethanesulfonamide] | < 0.06 | < 0.06
7 | CN1CCCN(c2c3c(c(O)c4ncccc24)C(=O)N(Cc2ccc(F)cc2)C3)S1(=O)=O [Compound 218] | < 0.06 | < 0.06
8 | CN(c1c2c(c(O)c3ncccc13)C(=O)N(Cc1ccc(F)cc1)C2)S(=O)(=O)c1cn(C)cn1 [Compound 56, N-(7-(4-fluorobenzyl)-9-hydroxy-8-oxo-7,8-dihydro-6H-pyrrolo[3,4-g]quinolin-5-yl)-N,1-dimethyl-1 H-imidazole-4-sulfonamide] | < 0.06 | < 0.06
9 | CCC(CC)OC(=O)OCOc1c2c(c(N(C)S(C)(=O)=O)c3cccnc13)CN(Cc1ccc(F)cc1)C2=O [Compound 32, (7-(4-fluorobenzyl)-5-(N-methylmethan-5-ylsulfonamido)-8-oxo-7,8-dihydro-6H-pyrrolo[3,4-g]quinolin-9-yloxy)methyl pentan-3-yl carbonate] | > 1 | 0.06 to 1
10 | O=C1c2c(c(N3CCCNS3(=O)=O)c3cccnc3c2O)CN1Cc1ccc(F)cc1 [Compound 215] | 0.06 to 1 | < 0.06
11 | CN(C)S(=O)(=O)Nc1c2c(c(O)c3ncccc13)C(=O)N(Cc1ccc(F)cc1)C2 [Compound 41, N-(7-(4-fluorobenzyl)-9-hydroxy-8-oxo-7,8-dihydro-6H-pyrrolo[3,4-g]quinolin-5-yl)-N′,N′-dimethylsulfamide] | 0.06 to 1 | < 0.06
12 | CN(c1c2c(c(O)c3ncccc13)C(=O)N(Cc1cc(Cl)ccc1F)C2)S(C)(=O)=O [Compound 211, N-(7-(5-chloro-2-fluorobenzyl)-9-hydroxy-8-oxo-7,8-dihydro-6H-pyrrolo[3,4-g]quinolin-5-yl)-N-methylmethanesulfonamide] | 0.06 to 1 | < 0.06
13 | CN(C)CCS(=O)(=O)N(C)c1c2c(c(O)c3ncccc13)C(=O)N(Cc1ccc(F)cc1)C2 [Compound 60, N-(7-(4-fluorobenzyl)-9-hydroxy-8-oxo-7,8-dihydro-6H-pyrrolo[3,4-g]quinolin-5-yl)-N-methyl-2-dimethylaminoethane-1-sulfonamide] | < 0.06 | < 0.06
14 | CN(c1c2c(c(O)c3ncccc13)C(=O)N(Cc1c(F)cc(F)cc1F)C2)S(C)(=O)=O [Compound 187, N-(7-(2,4,6-trifluorobenzyl)-9-hydroxy-8-oxo-7,8-dihydro-6H-pyrrolo[3,4-g]quinolin-5-yl)-N-methylmethanesulfonamide] | 0.06 to 1 | < 0.06
15 | CC(=O)N(C)c1c2c(c(O)c3ncccc13)C(=O)N(Cc1ccc(F)cc1)C2 [Compound 64, N-(7-(4-fluorobenzyl)-9-hydroxy-8-oxo-7,8-dihydro-6H-pyrrolo[3,4-g]quinolin-5-yl)-N-methylacetamide] | < 0.06 | < 0.06
16 | CN(C)CCCS(=O)(=O)N(C)c1c2c(c(O)c3ncccc13)C(=O)N(Cc1ccc(F)cc1)C2 [Compound 44, N-(7-(4-fluorobenzyl)-9-hydroxy-8-oxo-7,8-dihydro-6H-pyrrolo[3,4-g]quinolin-5-yl)-N-methyl-3-(dimethylamino)-propane-1-sulfonamide] | < 0.06 | < 0.06
17 | CN(c1c2c(c(O)c3ncccc13)C(=O)N(Cc1ccc(F)cn1)C2)S(C)(=O)=O [Compound 151, N-(7-((5-fluoropyridin-2-yl)methyl)-9-hydroxy-8-oxo-7,8-dihydro-6H-pyrrolo[3,4-g]quinolin-5-yl)-N-methylmethanesulfonamide] | 0.06 to 1 | 0.06 to 1
18 | C[C@@H]1c2c(c(O)c3ncccc3c2N(C)S(C)(=O)=O)C(=O)N1Cc1ccc(F)cc1 (single isomer, unassigned) [Compound 76] | < 0.06 | < 0.06
19 | O=C1c2c(c(N3CCNC3=O)c3cccnc3c2O)CN1Cc1ccc(F)cc1 [Compound 221, 7-(4-fluorobenzyl)-9-hydroxy-5-(2-oxoimidazolidin-1-yl)-6,7-dihydropyrrolo[3,4-g]quinolin-8-one] | < 0.06 | < 0.06
20 | C[C@H]1c2c(c(O)c3ncccc3c2N(C)S(C)(=O)=O)C(=O)N1Cc1ccc(F)cc1 (single isomer, unassigned) [Compound 75] | < 0.06 | < 0.06
21 | CN(c1c2c(c(O)c3ncccc13)C(=O)N(Cc1cc(Cl)c(F)cc1F)C2)S(C)(=O)=O [Compound 204, N-(7-(5-chloro-2,4-difluorobenzyl)-9-hydroxy-8-oxo-7,8-dihydro-6H-pyrrolo[3,4-g]quinolin-5-yl)-N-methylmethanesulfonamide] | < 0.06 | < 0.06
22 | CN(c1c2c(c(O)c3ncccc13)C(=O)N(Cc1ccccn1)C2)S(C)(=O)=O [Compound 94, N-(9-hydroxy-8-oxo-7-(pyridin-2-ylmethyl)-7,8-dihydro-6H-pyrrolo[3,4-g]quinolin-5-yl)-N-methylmethanesulfonamide] | 0.06 to 1 | < 0.06
23 | CN(c1c2c(c(O)c3ncccc13)C(=O)N(Cc1ccc(F)cc1)C2O)S(C)(=O)=O (single isomer, unassigned) [Compound 166, N-(7-(4-fluorobenzyl)-6,9-dihydroxy-8-oxo-7,8-dihydro-6H-pyrrolo[3,4-g]quinolin-5-yl)-N-methylmethanesulfonamide] | < 0.06 | < 0.06
24 | CC(C)OC(=O)OCOc1c2c(c(N(C)S(C)(=O)=O)c3cccnc13)CN(Cc1ccc(F)cc1)C2=O [Compound 33, (7-(4-fluorobenzyl)-5-(N-methylmethan-5-ylsulfonamido)-8-oxo-7,8-dihydro-6H-pyrrolo[3,4-g]quinolin-9-yloxy)methyl isopropyl carbonate] | > 1 | < 0.06
25 | CCOC(=O)N(C)c1c2c(c(O)c3ncccc13)C(=O)N(Cc1ccc(F)cc1)C2 [Compound 112, ethyl 7-(4-fluorobenzyl)-9-(hydroxy)-8-oxo-7,8-dihydro-6H-pyrrolo[3,4-g]quinolin-5-yl(methyl)carbamate] | < 0.06 | < 0.06
26 | CS(=O)(=O)Nc1c2c(c(O)c3ncccc13)C(=O)N(Cc1ccc(F)cc1)C2 [Compound 125, N-(7-(4-fluorobenzyl)-9-hydroxy-8-oxo-7,8-dihydro-6H-pyrrolo[3,4-g]quinolin-5-yl)methanesulfonamide] | < 0.06 | 0.06 to 1
27 | CN(c1c2c(c(O)c3ncccc13)C(=O)N(Cc1ccc(F)c(F)c1)C2)S(C)(=O)=O [Compound 179, N-(7-(3,4-difluorobenzyl)-9-hydroxy-8-oxo-7,8-dihydro-6H-pyrrolo[3,4-g]quinolin-5-yl)-N-methylmethanesulfonamide] | < 0.06 | < 0.06
28 | CN(Cc1ccccc1)S(=O)(=O)N(C)c1c2c(c(O)c3ncccc13)C(=O)N(Cc1ccc(F)cc1)C2 [Compound 135, N′-benzyl-N′-methyl-N-(7-(4-fluorobenzyl)-9-hydroxy-8-oxo-7,8-dihydro-6H-pyrrolo[3,4-g]quinolin-5-yl)-N-methylsulfamide] | 0.06 to 1 | 0.06 to 1
29 | CN(c1c2c(c(O)c3ncccc13)C(=O)N(Cc1ccc(F)cc1)C2)S(=O)(=O)CCN1CCOCC1 [Compound 163, N-(7-(4-fluorobenzyl)-9-hydroxy-8-oxo-7,8-dihydro-6H-pyrrolo[3,4-g]quinolin-5-yl)-N-methyl-2-morpholinoethanesulfonamide] | < 0.06 | < 0.06

Source: patent US20070072831A1, “Integrase inhibitor compounds” (GILEAD SCIENCES, INC., priority 2005, published 2007)
